Tested on: dermal papilla cells
Experiment: Dermal papilla cell growth promotion effect of functional raw materials and heat-treated LM1020, alone or combined (Colby prediction)
Format: cell-based, human
Settings: for effect on growth of dermal papilla cells / Effect of promoting growth of dermal papilla cell (%) Measured value: medium lacking growth factor; for Effect of promoting growth of dermal papilla cell (%) Measured value: raw material alone or LSD mixture, without LM1020
Method: The effect on the growth of dermal papilla cells was confirmed when the heat-treated Limosilactobacillus fermentum LM1020 was used together with L-menthol, salicylic acid, and dexpanthenol, which are active ingredients frequently used for functional cosmetics that help relieve hair loss symptoms. After the dermal papilla cells were seeded in a 96-well plate and cultured for 24 hours, the medium in the well was replaced with a medium lacking growth factor and further cultured for 24 hours. Then, the heat-treated Limosilactobacillus fermentum LM1020, L-menthol, salicylic acid, and dexpanthenol were used alone or mixed in a ratio of […] and used for treatment of dermal papilla cells prepared by the above-described method to determine the effect on the growth of the dermal papilla cells.
A growth rate of dermal papilla cells when cultured alone and growth rates of dermal papilla cells when treated alone or in a combination of L-menthol, salicylic acid, dexpanthenol, and the heat-treated Limosilactobacillus fermentum LM1020 were calculated. Then, the effects of the respective treatment materials on the promotion of growth of dermal papilla cells were calculated using the formula below and compared with each other. All the tests were repeated three times, and the average of each result was calculated and compared. • Dermal papilla cell growth promotion effect (%)=(B−A)÷A×100 • A=Growth rate of dermal papilla cells in non-treatment group • B=Growth rate of dermal papilla cells when treated with L-menthol, salicylic acid, dexpanthenol, and heat-treated Limosilactobacillus fermentum LM1020
Meanwhile, it was confirmed that when the heat-treated Limosilactobacillus fermentum LM1020 is used for treatment together with compounds of L-menthol, salicylic acid, and dexpanthenol, it is possible to overcome the effect of the compounds on the inhibition of growth of dermal papilla cells and promote the growth of dermal papilla cells. In order to thoroughly understand their synergistic effect, the effect to be predicted was calculated using the Colby formula, and a prediction value was compared with an experimental value (measurement value) to verify whether a synergistic effect exceeding the prediction value can be achieved.

Row | Structure (SMILES) | effect on promotion of growth of dermal papilla cells compared with heat-treated LM1020 (dexpanthenol alone vs LM1020 alone) | effect on growth of dermal papilla cells | Effect of promoting growth of dermal papilla cell (%) Measured value
1 | CC(C)(CO)[C@@H](O)C(=O)NCCCO [dexpanthenol] | lower than that of the heat-treated Limosilactobacillus fermentum LM1020 at all concentrations | able to promote the growth of dermal papilla cells | 2.35 ± 1.61%
2 | CC(C)[C@@H]1CC[C@@H](C)C[C@H]1O [L-menthol] |  | inhibit the growth of dermal papilla cells | −12.05 ± 3.31%
3 | O=C(O)c1ccccc1O [salicylic acid] |  | inhibit the growth of dermal papilla cells | −0.39 ± 0.80%

— patent publication US12697359B2, “Composition for preventing hair loss and promoting hair growth comprising postbiotic components from heat-treat Limosilactobacillus fermentum LM1020” (priority 2023, dated 2026)
